# Assay results taken from patent US9695155B2, “Herbicidal substituted pyrimidinyloxy benzene compounds” (E. I. DU PONT DE NEMOURS AND COMPANY, priority 2013, dated 2017).
# Legend:
# green foxtail [1] = experiment: Test D preemergence; type: in vivo, Setaria viridis; settings: Setaria viridis, pre-emergence, scale 0-100, read-out: Plant response rating, Foxtail, Green
# How it was run: (§1)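 Visual ratings from 0 (no effect) to 100 (complete control) relative to untreated plants were taken 7–21 days after treatment. Chemicals in a surfactant-containing solvent mixture were applied preemergence to seeds in silt loam, or postemergence to plants 2–18 cm tall (1–4 leaves) grown in a peat-based potting medium.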
# oilseed rape = experiment: Test D preemergence; type: in vivo, Brassica napus; settings: Brassica napus, pre-emergence, scale 0-100, read-out: Plant response rating, Oilseed Rape
# How it was run: as §1
# chamomile = experiment: Test D preemergence; type: in vivo, Matricaria inodora; settings: Tripleurospermum inodorum, pre-emergence, scale 0-100, read-out: Plant response rating, Chamomile
# How it was run: as §1
# bromegrass, downy = experiment: Test D postemergence; type: in vivo, Bromus tectorum; settings: Bromus tectorum, post-emergence, Postemergence, scale 0 to 100 (0 no effect, 100 complete control), read-out: Plant response rating, Bromegrass, Downy
# How it was run: as §1
# green foxtail [2] = experiment: Test D postemergence; type: in vivo, Setaria viridis; settings: Setaria viridis, post-emergence, scale 0 to 100 (0 no effect, 100 complete control), read-out: Plant response rating, Foxtail, Green
# How it was run: as §1
# lambsquarters = experiment: Test D postemergence; type: in vivo, Chenopodium album; settings: Chenopodium album, post-emergence, scale 0 to 100 (0 no effect, 100 complete control), read-out: Plant response rating, Lambsquarters
# How it was run: as §1
# pigweed = experiment: Test D postemergence; type: in vivo, Amaranthus retroflexus; settings: Amaranthus retroflexus, post-emergence, scale 0 to 100 (0 no effect, 100 complete control), read-out: Plant response rating, Pigweed
# How it was run: as §1
# wild mustard = experiment: Test D postemergence; type: in vivo, Sinapis arvensis; settings: Brassica, post-emergence, scale 0 to 100 (0 no effect, 100 complete control), read-out: Plant response rating, Mustard, Wild
# How it was run: as §1
# wild radish = experiment: Test D postemergence; type: in vivo, Raphanus raphanistrum; settings: Raphanus raphanistrum, post-emergence, scale 0 to 100 (0 no effect, 100 complete control), read-out: Plant response rating, Radish, Wild
# How it was run: as §1
# windgrass = experiment: Test D postemergence; type: in vivo, Apera spica-venti; settings: Apera spica-venti, post-emergence, scale 0 to 100 (0 no effect, 100 complete control), read-out: Plant response rating, Windgrass
# How it was run: as §1
# cocklebur = experiment: Test E preemergence; type: in vivo, Xanthium strumarium; settings: for Plant response rating, Cocklebur: scale 0 to 100, 0 no effect, 100 complete control
# How it was run: (§2)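 Test chemicals formulated in a non-phytotoxic solvent mixture containing a surfactant were applied preemergence to seeds in silt loam soil or postemergence to plants at the 1- to 4-leaf stage in potting mix. After 14 to 21 days in a greenhouse, injury was visually rated against controls on a 0-100 scale (0 = no effect, 100 = complete control).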
# fall panicum = experiment: Test E postemergence; type: in vivo, Panicum dichotomiflorum; settings: Panicum dichotomiflorum, post-emergence, read-out: Plant response rating, Panicum, Fall
# How it was run: as §2
# sandbur = experiment: Test E postemergence; type: in vivo, Cenchrus echinatus; settings: Cenchrus echinatus, post-emergence, read-out: Plant response rating, Sandbur
# How it was run: as §2
# [3] = Postemergence, 31 g ai/ha, scale 0 to 100
# [4] = Postemergence, 62 g ai/ha, scale 0 to 100
# [5] = Postemergence, 125 g ai/ha, scale 0 to 100
# [6] = Postemergence, 250 g ai/ha, scale 0 to 100
# [7] = postemergence, 16 g ai/ha, scale 0 to 100, 0 no effect, 100 complete control
structure (smiles),measurement,setting,value
"N#Cc1cccc(Oc2ncc(Cl)cn2)c1-n1cc(C(F)(F)F)cn1 [Compound 58, 3-[(5-chloro-2-pyrimidinyl)oxy]-2-[4-(trifluoromethyl)-1H-pyrazol-1-yl]benzonitrile]",pest or weed control at 31 g/ha,green foxtail [1]; 31 g ai/ha,100%
same,pest or weed control at 62 g/ha,green foxtail [1]; 62 g ai/ha,100%
same,pest or weed control at 125 g/ha,green foxtail [1]; 125 g ai/ha,100%
same,pest or weed control at 250 g/ha,green foxtail [1]; 250 g ai/ha,100%
same,plant injury at 31 g/ha,oilseed rape; 31 g ai/ha,100%
same,plant injury at 62 g/ha,oilseed rape; 62 g ai/ha,100%
same,plant injury at 125 g/ha,oilseed rape; 125 g ai/ha,100%
same,plant injury at 250 g/ha,oilseed rape; 250 g ai/ha,100%
same,pest or weed control at 31 g/ha,chamomile; 31 g ai/ha,30%
same,pest or weed control at 62 g/ha,chamomile; 62 g ai/ha,50%
same,pest or weed control at 125 g/ha,chamomile; 125 g ai/ha,80%
same,pest or weed control at 250 g/ha,chamomile; 250 g ai/ha,100%
same,pest or weed control at 31 g/ha,"bromegrass, downy; 31 g ai/ha",25%
same,pest or weed control at 62 g/ha,"bromegrass, downy; 62 g ai/ha",30%
same,pest or weed control at 125 g/ha,"bromegrass, downy; 125 g ai/ha",35%
same,pest or weed control at 250 g/ha,"bromegrass, downy; 250 g ai/ha",35%
same,pest or weed control at 31 g/ha,green foxtail [2]; 31 g ai/ha,20%
same,pest or weed control at 62 g/ha,green foxtail [2]; 62 g ai/ha,40%
same,pest or weed control at 125 g/ha,green foxtail [2]; 125 g ai/ha,65%
same,pest or weed control at 250 g/ha,green foxtail [2]; 250 g ai/ha,80%
same,pest or weed control at 31 g/ha,lambsquarters; 31 g ai/ha,75%
same,pest or weed control at 62 g/ha,lambsquarters; 62 g ai/ha,90%
same,pest or weed control at 125 g/ha,lambsquarters; 125 g ai/ha,95%
same,pest or weed control at 250 g/ha,lambsquarters; 250 g ai/ha,90%
same,pest or weed control at 31 g/ha,pigweed; 31 g ai/ha,90%
same,pest or weed control at 62 g/ha,pigweed; 62 g ai/ha,100%
same,pest or weed control at 125 g/ha,pigweed; 125 g ai/ha,100%
same,pest or weed control at 250 g/ha,pigweed; 250 g ai/ha,100%
same,pest or weed control at 31 g/ha,wild mustard; 31 g ai/ha,85%
same,pest or weed control at 62 g/ha,wild mustard; 62 g ai/ha,100%
same,pest or weed control at 125 g/ha,wild mustard; 125 g ai/ha,100%
same,pest or weed control at 250 g/ha,wild mustard; 250 g ai/ha,100%
same,pest or weed control at 31 g/ha,wild radish; 31 g ai/ha,65%
same,pest or weed control at 62 g/ha,wild radish; 62 g ai/ha,70%
same,pest or weed control at 125 g/ha,wild radish; 125 g ai/ha,90%
same,pest or weed control at 250 g/ha,wild radish; 250 g ai/ha,95%
same,pest or weed control at 31 g/ha,windgrass; 31 g ai/ha,20%
same,pest or weed control at 62 g/ha,windgrass; 62 g ai/ha,35%
same,pest or weed control at 125 g/ha,windgrass; 125 g ai/ha,55%
same,pest or weed control at 250 g/ha,windgrass; 250 g ai/ha,90%
same,Cocklebur plant response rating,"cocklebur; 31 g ai/ha, scale 0 to 100 (0 no effect, 100 complete control)",0
same,"Plant response rating, Cocklebur",cocklebur; 125 g ai/ha,0
same,"Plant response rating, Cocklebur",cocklebur; 250 g ai/ha,50
same,pest or weed control at 31 g/ha,fall panicum; [3],30%
same,pest or weed control at 62 g/ha,fall panicum; [4],40%
same,pest or weed control at 125 g/ha,fall panicum; [5],60%
same,pest or weed control at 250 g/ha,fall panicum; [6],60%
same,pest or weed control at 16 g/ha,fall panicum; [7],20%
same,pest or weed control at 31 g/ha,sandbur; [3],10%
same,pest or weed control at 62 g/ha,sandbur; [4],10%
same,pest or weed control at 125 g/ha,sandbur; [5],20%
same,pest or weed control at 250 g/ha,sandbur; [6],55%
same,pest or weed control at 16 g/ha,sandbur; [7],0%
